Results on seven molecules are retold here after patent publication US4073912A, “Piperidylidene derivatives of benzo-fused xanthenes, thioxanthenes and dibenzoxepins and antipsychotic use thereof” (priority 1976, dated 1978).

Structures can show the parent of a compound that is named as a salt. Where two headings read alike, the source gives them in different places.

Series [1] deals with shock avoidance acquisition. Description: Blockade (antagonism) of shock avoidance acquisition in rats. Type of series: in vivo. To be noted: Rattus norvegicus, ip, read-out: ED50 for antagonism (blockade) of avoidance acquisition (A). As to the method: (§1) To predict the potential ability of a drug to cause EPS, the ratio of its ED50 (i.p.) for antagonism of amphetamine-induced rotation to its ED50 (i.p.) for blockade of shock avoidance acquisition in the rat, a procedure for assessing antipsychotic activity, (R/A ratio) is calculated. The ED50 values of some clinically established antipsychotics in the avoidance and rotational tests and the R/A ratios are presented in Table I.

A short description of another series: in vivo. Type of series: in vivo, rat. To be noted: rat, in vivo, ip, rat.
Description: (§2) There is evidence that antipsychotic drugs cause EPS by interfering with neurotransmission in a nigrostriatal dopaminergic pathway. It is thought that they block dopamine receptors in the neostriatum. Therefore, the ability of a drug to block striatal dopamine receptors is a measure of its EPS liability.
(§3) This treatment causes degeneration of the nigrostriatal dopaminergic pathway accompanied by a marked decrease in the dopamine content of the neostriatum on the side of the lesion. Animals with this lesion develop postural and motor asymmetries which are altered by drugs which affect dopaminergic activity. Amphetamine, which releases dopamine and norepinephrine from catecholaminergic neurons, causes these rats to rotate unidirectionally toward the side of the lesion; i.e., ipsilaterally. Since there is a much larger amount of dopamine to be released by amphetamine from the intact nigrostriatal neurons on the non-lesioned side than from those remaining on the lesioned side, the rotational behavior is apparently due to a preponderance of activation of striatal dopamine receptors on the intact side. The ability of a drug to antagonize the rotational behavior is therefore a measure of its ability to block striatal dopamine receptors and is indicative of its potential to produce EPS.
as §1

Series [2] relates to striatal dopamine receptors. The experiment in a line: in vivo. Type of series: in vivo, rat. To be noted: for ED50 for antagonism of amphetamine-induced rotation (R): rats with unilateral 6-hydroxydopamine lesion, i.p.; for R/A ratio: rat.
Description: as §2, §3, §1

The conditions of series [3]: compared with chlorpromazine; cited from earlier work.
Setting [4] is: ED50 (i.p.) rotation / ED50 (i.p.) avoidance, high ratio predicts low potential to produce EPS, read-out: R/A ratio.

Broadly, the ED50 is the midpoint of the dose-response relation. Regarding `CN1CCC(=C2c3ccccc3Oc3ccc4ccccc4c32)CC1` [12-(1-methyl-4-piperidylidene)-12H-benzo a!xanthene hydrochloride], in series [1] (rats, i.p.), the ED50 was 0.64 mg/kg. Moreover, the selectivity ratio in the series “in vivo” (setting [4]) was 10. In series [2] (indicated by R/A ratio of 10), the EPS liability entry is “essentially free of EPS liability”. For the same molecule, the “ED50 for antagonism of amphetamine-induced rotation (R)” value (“ED50 for antagonism” below) in series [2] was 6.4 mg/kg.
In the case of `O=C(CCCN1CCC(O)(c2ccc(Cl)cc2)CC1)c1ccc(F)cc1` [Haloperidol], the ED50 in series [1] turned out to be 0.16 mg/kg. For the same molecule, in the series “in vivo” (R/A ratio), the selectivity ratio turned out to be 0.31. For the same molecule, the R/A ratio in series [2] (in vivo, ip) lay within 0.3 to 0.5. Moreover, the “ED50 for antagonism” value in series [2] is listed as 0.05 mg/kg. In addition, the “propensity to cause EPS” value in series [3] is “considerably greater propensity to cause EPS than chlorpromazine”.
For the molecule `CN(C)CCCN1c2ccccc2Sc2ccc(Cl)cc21` [Chlorpromazine], the ED50 in series [1] worked out at 1.5 mg/kg. The selectivity ratio in “in vivo” (setting [4]) is 1.3. In addition, in series [2], the “ED50 for antagonism” value was 2.0 mg/kg.
`CSc1ccc2c(c1)N(CCC1CCCCN1C)c1ccccc1S2` (centres unmarked) [Thioridazine]: in series [1] (rats, i.p.), the ED50 came to 5.1 mg/kg.
As for `O=c1[nH]c2ccccc2n1C1CCN(CCCC(c2ccc(F)cc2)c2ccc(F)cc2)CC1` [Pimozide], in series [1], the ED50 was 0.24 mg/kg. Besides, in the series “in vivo” (setting [4]), the selectivity ratio was 0.3. Besides, the R/A ratio in series [2] (ED50 (i.p.) rotation / ED50 (i.p.) avoidance, high ratio predicts low potential to produce EPS) is listed as 0.3 to 0.5. Also, in series [2], the “ED50 for antagonism” value was 0.08 mg/kg. In addition, the “propensity to cause EPS” value in series [3] is recorded as “considerably greater propensity to cause EPS than chlorpromazine”.
Take `CN1CCN(C2=Nc3cc(Cl)ccc3Nc3ccccc32)CC1` [Clozapine]: the ED50 in series [1] (rats, i.p.) was 6.6 mg/kg. Further, in the series “in vivo” (read-out: R/A ratio), the selectivity ratio is 3.8. For the same molecule, the “propensity to cause EPS” value in series [3] is reported as “produce EPS to a lesser extent than chlorpromazine”.
As for `CN1CCN(CCCN2c3ccccc3Sc3ccc(C(F)(F)F)cc32)CC1` [Trifluoperazine], in series [1] (rats, i.p.), the ED50 was 0.26 mg/kg. In the series “in vivo” (R/A ratio), the selectivity ratio amounted to 0.46. Besides, in series [2] (in vivo, ip), the R/A ratio lay in the range of 0.3 to 0.5. Besides, the “ED50 for antagonism” value in series [2] turned out to be 0.12 mg/kg. In addition, the “propensity to cause EPS” value in series [3] was “considerably greater propensity to cause EPS than chlorpromazine”.
